The values that follow come from ChEMBL document CHEMBL1201862, “PubChem BioAssay data set” (2004).

Common to all, as to assay: NCI tumour cell line growth inhibition, 48 h
Assay [1] deals with HT-29.
In assay [2] the test system is OVCAR-8.
The test system of assay [3] is A549.
The test system of assay [4] is IGROV-1.
The test system of assay [5] is NCI-H522.
The subject of assay [6] is DU-145.
The subject of assay [7] is OVCAR-5.
Assay [8] concerns UACC-257.
The test system of assay [9] is SR.
In assay [10] the test system is LOX IMVI.
For assay [11], the system named is SK-MEL-28.
For assay [12], the system named is HCT-116.
Assay [13] relates to TK-10.
Assay [14] deals with ACHN.
For assay [15], the system named is SW-620.
Assay [16] deals with KM12.
Assay [17] concerns NCI/ADR-RES.
For assay [18], the system named is HOP-62.
Assay [19] concerns HL-60.
For assay [20], the system named is MDA-N.

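Growth conditions: 96-well plates. Treatment: test compound, 48 hours, 5 concentrations. Analysis: linear interpolation between bracketing concentrations; unreached endpoints set to highest concentration. GI50 is the concentration that inhibits growth by half.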 Activity calls are given as the source filed them. Cut-off read from the data, not from the text of the source: active = GI50 up to about 1.1 µM and inactive = higher. Bounds are passed on as bounds.

`CCCC(=O)NC(Nc1ccc(S(=O)(=O)Nc2cc(C)on2)cc1)(C(=O)OCC)C(F)(F)F` (stereo not given): the GI50 in assay [1], in assay [2], in assay [3], in assay [4], in [5] and in [6] was > 100 µM (inactive) in each case. Further, the GI50 in assay [7] is > 100 µM (inactive); in [8], > 100 µM (inactive); in assay [9], 9.75 µM (inactive); in assay [10], > 100 µM (inactive); in [11], > 100 µM (inactive); in assay [12] it was > 100 µM (inactive). Besides, the GI50 in [13], in assay [14], in assay [15], in assay [16], in assay [17] and in [18] was > 100 µM (inactive) each time. Moreover, the GI50 in assay [19] and in [20] was > 100 µM (inactive) throughout.

`Cc1ccc(F)c2[nH]c(-c3ccccc3)cc(=O)c12`: the GI50 in assay [1] is 4.57 µM (inactive); in [2] it was 6.11 µM (inactive); in [3], 4.97 µM (inactive); in assay [4], 5.3 µM (inactive); in assay [5], 5.69 µM (inactive); in [6], 8.04 µM (inactive). The GI50 in assay [7] was 9.1 µM (inactive); in [8] it was 58.5 µM (inactive); in assay [9], 2.99 µM (inactive); in assay [10], 4.68 µM (inactive); in assay [11] it was 3.11 µM (inactive); in [12], 4.73 µM (inactive). The GI50 in [13] was 14.6 µM (inactive); in assay [14], 8.77 µM (inactive); in [15] it was 4.67 µM (inactive); in assay [16], 3.03 µM (inactive); in assay [17], 3.82 µM (inactive); in assay [18], 5.9 µM (inactive). Besides, the results for the GI50 in assay [19] and in [20] were 3.39 µM (inactive) and 0.897 µM (active), respectively.

Turning to `CC1(C)CC2(C)ON=C(c3ccccc3)N2c2ccccc2N1` (stereo not given), the GI50 in [1] is 16.4 µM (inactive); in [2], 27.7 µM (inactive); in assay [3], 25.1 µM (inactive); in [4], 32.1 µM (inactive); in assay [5], 21.4 µM (inactive); in assay [6] it was 33.1 µM (inactive). In addition, the GI50 in assay [7] is 46.9 µM (inactive); in assay [8] it was 24.4 µM (inactive); in assay [9], 34.5 µM (inactive); in assay [10], 17.3 µM (inactive); in assay [11] it was 23 µM (inactive); in assay [12], 14.8 µM (inactive). In addition, the GI50 in assay [13] was 39.4 µM (inactive); in assay [14], 19.5 µM (inactive); in assay [15] it was 36.5 µM (inactive); in assay [16] it was 30.6 µM (inactive); in [17], 23.4 µM (inactive); in [18], 17.7 µM (inactive). Besides, the GI50 in assay [19] is 19.7 µM (inactive); in [20] it was 21.2 µM (inactive).

For `NC(=O)N/N=C1\C[C@H]2CCCC[C@H]2C1`, the GI50 is > 100 µM (inactive) in assay [1]; 83.4 µM (inactive) in [2]; > 100 µM (inactive) in assay [3]; > 100 µM (inactive) in assay [4]; > 100 µM (inactive) in [5]; > 100 µM (inactive) in assay [6]. For the same molecule, the GI50 in [7], in [8], in [9], in assay [10], in assay [11] and in assay [12] was > 100 µM (inactive) each time. Further, the GI50 in assay [13], in assay [14], in assay [15], in [16], in assay [17] and in assay [18] was > 100 µM (inactive) each time. The GI50 in assay [19] and in assay [20] was > 100 µM (inactive) each time.

`O=C1c2cc([N+](=O)[O-])cnc2S(=O)(=O)N1c1ccc(Br)cc1`: the GI50 in assay [1], in assay [2], in assay [3], in assay [4], in [5] and in assay [6] was > 100 µM (inactive) throughout. In addition, the GI50 in [7], in assay [8], in [9], in [10], in assay [11] and in [12] was > 100 µM (inactive) in each case. The GI50 in assay [13], in assay [14], in [15], in assay [16], in [17] and in assay [18] was > 100 µM (inactive) in each case. Also, the GI50 in assay [19] and in assay [20] was > 100 µM (inactive) each time.

Regarding `C=C1CC(COc2ccc3ccc(=O)oc3c2)(c2ccccc2)OC1=O` (stereo not given), the GI50 was 0.627 µM (active) in [1]; 2.21 µM (inactive) in [2]; 10.6 µM (inactive) in [3]; 1.64 µM (inactive) in assay [4]; 0.501 µM (active) in assay [5]; 2.77 µM (inactive) in assay [6]. Besides, the GI50 in assay [7] was 5.87 µM (inactive); in assay [8], 1.71 µM (inactive); in assay [9] it was 0.867 µM (active); in [10], 0.942 µM (active); in assay [11] it was 2.3 µM (inactive); in assay [12], 0.597 µM (active). Moreover, the GI50 in [13] was 1.54 µM (inactive); in assay [14], 2.01 µM (inactive); in assay [15], 0.316 µM (active); in assay [16] it was 3.27 µM (inactive); in [17], 2.48 µM (inactive); in assay [18], 11.6 µM (inactive). For the same molecule, the GI50 was 0.0803 µM (active) in assay [19] and 1.11 µM (active) in assay [20].

With `COC1=CC(=O)c2c(O)c3c(c(O)c2C1=O)C=C(C)OC3O` (stereo not given), the GI50 in assay [1] is 0.541 µM (active); in [2] it was 0.849 µM (active); in [3], 1.42 µM (inactive); in [4], 1.98 µM (inactive); in assay [5] it was 1.45 µM (inactive); in assay [6], 1.01 µM (active). Moreover, the GI50 in [7] was 2.43 µM (inactive); in [8] it was 0.24 µM (active); in [9] it was 1.84 µM (inactive); in assay [10], 0.597 µM (active); in assay [11] it was 1.27 µM (inactive); in assay [12] it was 0.569 µM (active). The GI50 in assay [13] was 2.89 µM (inactive); in assay [14], 2.1 µM (inactive); in assay [15] it was 0.828 µM (active); in assay [16], 2.21 µM (inactive); in assay [17], 1.51 µM (inactive); in [18], 2.88 µM (inactive). In addition, the GI50 in assay [19] is 0.731 µM (active); in assay [20], 1.66 µM (inactive).

On to `COC1CC(OC2CCC3(C)C(CCC45CCC(C6=CC(=O)OC6)C(C)(CCC43)C5=O)C2)OC(C)C1O` (stereo not given), for which the GI50 in assay [1] is 39.5 µM (inactive); in assay [2], 55.8 µM (inactive); in assay [3], 28.5 µM (inactive); in [4], 38.7 µM (inactive); in [5] it was 27.9 µM (inactive); in assay [6], 15.9 µM (inactive). Also, the GI50 is 40.8 µM (inactive) in assay [7]; > 100 µM (inactive) in [8]; 28.1 µM (inactive) in assay [9]; 38.4 µM (inactive) in assay [10]; > 100 µM (inactive) in assay [11]; 35.1 µM (inactive) in assay [12]. The GI50 in assay [13] is 51.2 µM (inactive); in assay [14], 22.1 µM (inactive); in assay [15], 43.7 µM (inactive); in [16] it was 64.4 µM (inactive); in [17], 32.5 µM (inactive); in assay [18], 27 µM (inactive). The GI50 in assay [19] was 18.8 µM (inactive); in assay [20] it was > 100 µM (inactive).
